The source of these data is US20040146520A1, “Materials and methods relating to immune suppression” (priority 2001, published 2004).

Where a SMILES comes first, the peptide text is derived from it. The star is where a group is joined. Cbz = O=C(OCc1ccccc1)*; CH2F = FC*

Series [1] has as its target CD8-associated p56lck (Homo sapiens, UniProt P06239). The note with it: cited from earlier work.
Series [2] concerns A2+ B cell targets. Nature of the series: Gag-specific CTL assay, apoptosis of peptide-pulsed targets (Annexin-V). The note with it: peptide-pulsed BCL, 12-hour incubation, FIG. 1b.
In series [3] the test system is Flu-specific (MP58-66) CTL. As to the kind of experiment: CTL apoptosis induced by peptide/MHC multimeric beads. Type of series: cell-based, human. The note with it: IL-2 20 U/ml, anti-CD28 1 μg/ml, z-VAD 10 μM; 12 hrs.

Chain of CD8-associated p56lck (P06239 whole entry): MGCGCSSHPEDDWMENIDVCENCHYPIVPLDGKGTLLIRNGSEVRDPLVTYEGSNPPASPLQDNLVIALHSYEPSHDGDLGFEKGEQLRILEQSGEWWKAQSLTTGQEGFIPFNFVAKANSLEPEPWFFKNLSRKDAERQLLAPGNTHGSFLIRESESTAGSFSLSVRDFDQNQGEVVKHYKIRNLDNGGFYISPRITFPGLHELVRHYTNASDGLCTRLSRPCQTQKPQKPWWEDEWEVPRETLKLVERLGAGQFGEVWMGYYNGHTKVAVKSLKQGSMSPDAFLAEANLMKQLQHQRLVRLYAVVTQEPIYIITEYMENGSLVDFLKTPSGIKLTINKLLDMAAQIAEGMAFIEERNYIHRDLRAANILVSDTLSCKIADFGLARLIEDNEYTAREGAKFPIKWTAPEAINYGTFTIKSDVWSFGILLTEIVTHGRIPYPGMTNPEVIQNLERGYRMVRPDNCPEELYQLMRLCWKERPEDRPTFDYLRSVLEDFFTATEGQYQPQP

Regarding `CO[C@H]1[C@@H](OC)C[C@H](C)[C@@H](OC)C2=CC(=O)C=C(NC(=O)/C(C)=C/C=C\[C@H](OC)[C@@H](OC(N)=O)/C(C)=C/[C@@H]1C)C2=O` [herbimycin A], the “effect on FasL-mediated cytotoxicity” value in series [1] is on record as “little effect”.

Turning to SLFNTVATL [Mutant 3F], the “target cell death, gag variant peptides” value in series [2] is “sensitising”.

In the case of `CC(NC(=O)C(NC(=O)OCc1ccccc1)C(C)C)C(=O)NC(CC(=O)O)C(=O)CF` (stereo not drawn) [z-VAD] (Cbz-Val-Ala-Asp-CH2F; configuration not given here), the “effect of added reagent on multimer-induced CTL death” value in series [3] is on record as “blocked”.
